Reference: PMC12797170, “Potent Competitive Inhibitors of Ecto-5′-nucleotidase (CD73) based on 6‑(Het)aryl-7-deazapurine Ribonucleoside 5′‑O‑Bisphosphonates” (ACS Pharmacology & Translational Science, 2025)
Where two headings read alike, the source gives them in different places.

Legend:
[1] = Plasma protein binding, mouse plasma; format: in vitro ADME; details: mouse, plasma
[2] = biological target: T1, recombinant human CD73 (hCD73) (Homo sapiens, UniProt P21589); test: CD73 activity assay on recombinant human CD73; format: biochemical; details: ΔGexp = RT ln Ki
T1 sequence (P21589 27-574): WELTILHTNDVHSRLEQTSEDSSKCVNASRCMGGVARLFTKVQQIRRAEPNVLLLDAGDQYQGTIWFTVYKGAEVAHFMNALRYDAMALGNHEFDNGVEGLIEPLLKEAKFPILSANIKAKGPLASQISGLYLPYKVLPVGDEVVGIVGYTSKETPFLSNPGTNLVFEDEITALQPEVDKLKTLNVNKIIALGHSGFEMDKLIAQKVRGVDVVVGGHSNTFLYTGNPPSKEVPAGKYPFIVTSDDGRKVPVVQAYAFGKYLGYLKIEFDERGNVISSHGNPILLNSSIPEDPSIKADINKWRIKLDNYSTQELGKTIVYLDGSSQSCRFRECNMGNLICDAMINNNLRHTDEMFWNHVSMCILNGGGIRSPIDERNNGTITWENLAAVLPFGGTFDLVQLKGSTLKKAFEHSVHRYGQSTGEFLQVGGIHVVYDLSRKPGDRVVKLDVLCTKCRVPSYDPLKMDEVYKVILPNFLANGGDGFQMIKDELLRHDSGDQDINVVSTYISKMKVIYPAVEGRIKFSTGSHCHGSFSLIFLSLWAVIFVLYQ

CYP3A4 = biological target: T2, CYP3A4 (Homo sapiens, UniProt P08684); test: In vitro CYP450 inhibition assay (Vivid); format: biochemical; details: probe fluorogenic Vivid CYP450 substrate (not named)
T2 construct: assay run by Bienta (Enamine Biology Services)
T2 sequence (P08684 2-503 limits assumed): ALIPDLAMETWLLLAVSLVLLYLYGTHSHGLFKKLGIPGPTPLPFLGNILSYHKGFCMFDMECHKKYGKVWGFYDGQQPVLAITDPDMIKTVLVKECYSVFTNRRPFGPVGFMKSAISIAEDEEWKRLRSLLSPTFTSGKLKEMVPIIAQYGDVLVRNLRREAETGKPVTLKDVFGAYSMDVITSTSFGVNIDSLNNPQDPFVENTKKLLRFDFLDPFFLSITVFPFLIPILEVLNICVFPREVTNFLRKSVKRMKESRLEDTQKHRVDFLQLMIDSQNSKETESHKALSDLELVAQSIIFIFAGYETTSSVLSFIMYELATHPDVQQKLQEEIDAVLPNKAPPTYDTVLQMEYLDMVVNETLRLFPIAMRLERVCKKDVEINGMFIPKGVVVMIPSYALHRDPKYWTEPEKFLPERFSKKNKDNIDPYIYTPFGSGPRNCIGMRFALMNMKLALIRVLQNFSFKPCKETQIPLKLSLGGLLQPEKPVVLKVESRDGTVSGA
Experimental: (§1) The study was performed by Bienta (Enamine Biology Services). The potential for CYP450 inhibition (isoforms 1A2, 2C9, 2C19, 2D6, and 3A4) was assessed by performing in vitro inhibition studies using fluorogenic CYP450 substrates with the corresponding CYP450 enzymes and NADPH regeneration system (Vivid CYP450 Screening Kits) with some minor changes to the manufacturer’s protocols. The fluorescent signal produced from the reaction is directly proportional to the cytochrome P450 activity. In the cases when tested compounds interfere with the CYP450 enzyme–substrate reaction, the fluorescent signal decreases.
(§2) Briefly, the tested compounds were first dissolved in DMSO at 100× concentration (1 mM) and diluted in buffer to 2.5× concentration (25 μM). […] After 10 min of preincubation, the enzymatic reaction was initiated by the addition of a mix of NADPH and the appropriate CYP450 substrates. The plate was incubated for the desired reaction time (25 min for CYP1A2, CYP2C9, CYP2D6, and CYP3A4; 60 min for CYP2C19) after which Stop Reagent was added and fluorescence measured using SpectraMax Paradigm Multi-Mode Microplate Reader. All test points were performed in quadruplicates at a concentration of 10 μM (1% DMSO).

[3] = In vivo pharmacokinetic study, intravenous; parameters: species or system male CD-1 mice; details: for half-life / clearance: plasma, 1 mg/kg; for half-life: footnote: t1/2 stability in plasma, text: half-life in mouse PK; for unbound plasma exposure relative to mouse CD73 Ki: mouse PK, unbound via mouse PPB, all time points
How it was run: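 Single intravenous dose in male CD-1 mice (n=3, 9 weeks, 29.2–33.7 g). Plasma levels measured by LC-MS/MS at 5, 15, 30, 60, 120, 240 and 480 min.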

[4] = tested on: panel of CYP isoforms (1A2, 2C9, 2C19, 2D6, and 3A4); test: CYP450 inhibition, panel statement; format: biochemical, human; details: up to 50 μM
Experimental: as §1, §2

HeLa S3 = test: In vitro cytotoxic activity; format: cell-based; details: Homo sapiens
Experimental: (§3) All the compounds were also tested for their in vitro cytotoxic activity on a small panel of four cancer cell lines (CCRF-CEM, HepG2, HeLa S3, HL-60) and nonmalignant human dermal fibroblasts (NHDF).

[5] = tested on: nonmalignant human dermal fibroblasts (NHDF); test: In vitro cytotoxic activity; format: cell-based
Experimental: as §3

HL-60 = test: In vitro cytotoxic activity; format: cell-based; details: Homo sapiens
Experimental: as §3

HepG2 = test: In vitro cytotoxic activity; format: cell-based; details: Homo sapiens
Experimental: as §3

CCRF-CEM = test: In vitro cytotoxic activity; format: cell-based; details: Homo sapiens
Experimental: as §3

[6] = Microsomal stability assay, human liver microsomes; format: in vitro ADME; details: for Mics (hu) comp remaining 60 min: 10 μM; for microsomal CLint at 10 µM: pooled liver microsomes, pH 7.4, read-out: Mics (hu) CLint
[7] = mouse plasma protein binding, read-out: PPB (m) (converted)
[8] = male, CD-1, mouse, iv, intravenous
[9] = Tables 2 and 4, mouse plasma, read-out: fup, fraction unbound in mouse plasma
[10] = mouse, male CD-1 mice, intravenous, single dose, read-out: Cl (obs), observed clearance
[11] = male, CD-1, mouse, intravenous, in vivo PK in mice, unit inferred, read-out: clearance

O=P(O)(O)CP(=O)(O)OC[C@H]1O[C@@H](n2ccc3c(-c4ccc5ccccc5c4)ncnc32)[C@H](O)[C@@H]1O [4A.7]
fraction unbound at 4 h, 100 µM [1, 7]: 0.315
dG_exp, experimental binding free energy [2]: –13.4 kcal/mol
inhibition at 25 min, 10 µM (CYP3A4): -7%
half-life [3, 8]: 4.2 h
clearance ([3]; male, CD-1, mouse, iv, in vivo PK in mice, unit inferred, read-out: clearance): 4.1 mL/min/kg
inhibition of a panel of CYP isoforms [4]: no inhibition
IC50 (HeLa S3): > 10 µM
IC50 [5]: > 10 µM
IC50 (HL-60): > 10 µM
IC50 (HepG2): > 10 µM
IC50 (CCRF-CEM): > 10 µM

O=P(O)(O)CP(=O)(O)OC[C@H]1O[C@@H](n2ccc3c(-c4cccc5c4CCCC5)nc(Cl)nc32)[C@H](O)[C@@H]1O [7B.12]
fraction unbound at 4 h, 100 µM [1, 9]: 0.22
fraction unbound at 4 h, 100 µM [1, 7]: 0.216
dG_exp, experimental binding free energy [2]: –15.9 kcal/mol
inhibition at 25 min, 10 µM (CYP3A4): -8%
Mics (hu) comp remaining 60 min [6]: 101%
microsomal CLint at 10 µM [6]: < 1 µL/min/mg
half-life [3, 8]: 2.33 h
clearance [3, 10]: 0.88 mL/min/kg
inhibition of a panel of CYP isoforms [4]: no inhibition
IC50 (HeLa S3): > 10 µM
IC50 [5]: > 10 µM
IC50 (HL-60): > 10 µM
IC50 (HepG2): > 10 µM
IC50 (CCRF-CEM): > 10 µM

O=P(O)(O)CP(=O)(O)OC[C@H]1O[C@@H](n2ccc3c(-c4ccc5c(c4)CCCC5)nc(I)nc32)[C@H](O)[C@@H]1O [27H.23, [(5-{[2-Iodo-4-(5,6,7,8-tetrahydronaphthalen-2-yl)-7H-pyrrolo[2,3-d]pyrimidin-7-yl]-β-D-ribofuranosyl}oxy)phosphonomethyl]phosphonic Acid]
fraction unbound at 4 h, 100 µM [1, 7]: 0.036
dG_exp, experimental binding free energy [2]: –16.1 kcal/mol
inhibition at 25 min, 10 µM (CYP3A4): -23%
Mics (hu) comp remaining 60 min [6]: 104%
microsomal CLint at 10 µM [6]: < 1 µL/min/mg
clearance [3, 11]: 3.1 mL/min/kg
half-life [3, 8]: 3.08 h
clearance [3, 10]: 3.1 mL/min/kg
inhibition of a panel of CYP isoforms [4]: no inhibition
IC50 (HeLa S3): > 10 µM
IC50 [5]: > 10 µM
IC50 (HL-60): > 10 µM
IC50 (HepG2): > 10 µM
IC50 (CCRF-CEM): > 10 µM

O=P(O)(O)CP(=O)(O)OC[C@H]1O[C@@H](n2ccc3c(-c4cccc5ccncc45)ncnc32)[C@H](O)[C@@H]1O [4A.18]
fraction unbound at 4 h, 100 µM [1, 7]: 0.727
dG_exp, experimental binding free energy [2]: –14.1 kcal/mol
inhibition at 25 min, 10 µM (CYP3A4): -3%
Mics (hu) comp remaining 60 min [6]: 105%
microsomal CLint at 10 µM [6]: < 1 µL/min/mg
inhibition of a panel of CYP isoforms [4]: no inhibition
IC50 (HeLa S3): > 10 µM
IC50 [5]: > 10 µM
IC50 (HL-60): > 10 µM
IC50 (HepG2): > 10 µM
IC50 (CCRF-CEM): > 10 µM

O=P(O)(O)CP(=O)(O)OC[C@H]1O[C@@H](n2ccc3c(-c4ccc(F)c5ccccc45)nc(Cl)nc32)[C@H](O)[C@@H]1O [7B.28]
fraction unbound at 4 h, 100 µM [1, 9]: 0.23
fraction unbound at 4 h, 100 µM [1, 7]: 0.232
dG_exp, experimental binding free energy [2]: –16.6 kcal/mol
inhibition at 25 min, 10 µM (CYP3A4): 9%
Mics (hu) comp remaining 60 min [6]: 95%
microsomal CLint at 10 µM [6]: 2 µL/min/mg
half-life [3, 8]: 1.8 h
unbound plasma exposure relative to mouse CD73 Ki [3]: well above
clearance [3, 10]: 1.7 mL/min/kg
inhibition of a panel of CYP isoforms [4]: no inhibition
IC50 (HeLa S3): > 10 µM
IC50 [5]: > 10 µM
IC50 (HL-60): > 10 µM
IC50 (HepG2): > 10 µM
IC50 (CCRF-CEM): > 10 µM

O=P(O)(O)CP(=O)(O)OC[C@H]1O[C@@H](n2ccc3c(-c4ccc5c(c4)CCCC5)nc(Cl)nc32)[C@H](O)[C@@H]1O [7B.23]
fraction unbound at 4 h, 100 µM [1, 9]: 0.06
fraction unbound at 4 h, 100 µM [1, 7]: 0.059
dG_exp, experimental binding free energy [2]: –16.3 kcal/mol
inhibition at 25 min, 10 µM (CYP3A4): -23%
Mics (hu) comp remaining 60 min [6]: 124%
microsomal CLint at 10 µM [6]: < 1 µL/min/mg
half-life [3, 8]: 2.23 h
clearance [3, 10]: 3 mL/min/kg
inhibition of a panel of CYP isoforms [4]: no inhibition
IC50 (HeLa S3): > 10 µM
IC50 [5]: > 10 µM
IC50 (HL-60): 5.7 µM
IC50 (HepG2): 9.3 µM
IC50 (CCRF-CEM): > 10 µM

Cc1nc(-c2ccc3ccccc3c2)c2ccn([C@@H]3O[C@H](COP(=O)(O)CP(=O)(O)O)[C@@H](O)[C@H]3O)c2n1 [18E.7]
fraction unbound at 4 h, 100 µM [1, 9]: 0.22
fraction unbound at 4 h, 100 µM [1, 7]: 0.221
dG_exp, experimental binding free energy [2]: –14.6 kcal/mol
Mics (hu) comp remaining 60 min [6]: 86%
microsomal CLint at 10 µM [6]: 5 µL/min/mg
half-life [3, 8]: 1.73 h
clearance [3, 10]: 4.6 mL/min/kg
IC50 (HeLa S3): > 10 µM
IC50 [5]: > 10 µM
IC50 (HL-60): > 10 µM
IC50 (HepG2): > 10 µM
IC50 (CCRF-CEM): > 10 µM

Cc1nc(-c2cccc3ccccc23)c2ccn([C@@H]3O[C@H](COP(=O)(O)CP(=O)(O)O)[C@@H](O)[C@H]3O)c2n1 [18E.6]
fraction unbound at 4 h, 100 µM [1, 9]: 0.51
fraction unbound at 4 h, 100 µM [1, 7]: 0.515
dG_exp, experimental binding free energy [2]: –13.9 kcal/mol
inhibition at 25 min, 10 µM (CYP3A4): 0%
Mics (hu) comp remaining 60 min [6]: 98%
microsomal CLint at 10 µM [6]: 1 µL/min/mg
clearance [3, 11]: 0.32 mL/min/kg
half-life [3, 8]: 5.27 h
unbound plasma exposure relative to mouse CD73 Ki [3]: well above
clearance [3, 10]: 0.32 mL/min/kg
inhibition of a panel of CYP isoforms [4]: no inhibition
IC50 (HeLa S3): > 10 µM
IC50 [5]: > 10 µM
IC50 (HL-60): > 10 µM
IC50 (HepG2): > 10 µM
IC50 (CCRF-CEM): > 10 µM
